The values below come from US9393271B2, “GHRH agonists for islet cell transplantation and function and the treatment of diabetes” (UNIVERSITY OF MIAMI, priority 2012, dated 2016).

The target of the assay is T1, GHRH receptor (human pituitary membrane homogenates) (Homo sapiens, UniProt Q02643).
T1 sequence (Q02643 23-423): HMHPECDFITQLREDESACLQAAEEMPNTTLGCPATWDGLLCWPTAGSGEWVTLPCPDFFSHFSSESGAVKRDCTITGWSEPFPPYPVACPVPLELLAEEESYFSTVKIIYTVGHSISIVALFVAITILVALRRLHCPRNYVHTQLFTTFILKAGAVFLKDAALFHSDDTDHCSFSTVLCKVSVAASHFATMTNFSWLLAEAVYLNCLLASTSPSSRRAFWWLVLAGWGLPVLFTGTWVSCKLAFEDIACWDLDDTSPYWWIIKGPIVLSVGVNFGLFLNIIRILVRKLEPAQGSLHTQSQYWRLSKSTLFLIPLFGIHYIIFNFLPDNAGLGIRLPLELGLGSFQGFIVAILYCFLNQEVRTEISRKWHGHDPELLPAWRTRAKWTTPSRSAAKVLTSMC
Nature of the assay: GHRH receptor binding, ligand competition with 125I-labeled JV-1-42 (Table 7). Set-up: Normal human pituitaries were purchased from the National Hormone and Peptide Program; tissue National Hormone and Peptide Program (A. F. Parlow, Harbor-UCLA Medical Center, Torrance, Calif.); host or cells: normal human pituitary, membrane fraction / homogenate. To be noted: JI-38 = 1.

Non-standard residues stand in square brackets, D forms with d. Residues, ends and D or L forms follow the SMILES beside them. ξ: configuration not given here. *: point of attachment. Phe(F5) = N[C@@H](Cc1c(F)c(F)c(F)c(F)c1F)C(=O)O; Desaminotyrosyl = O=C(CCc1ccc(O)cc1)*; NMeY = CN[C@@H](Cc1ccc(O)cc1)C(=O)O; Nle = CCCC[C@H](N)C(=O)O; Orn = NCCC[C@H](N)C(=O)O; Abu = CC[C@H](N)C(=O)O; GABA = NCCCC(=O)O; ξA = CC(N)C(=O)O

Take `CCCC[C@H](NC(=O)[C@@H](NC(=O)[C@H](CC(=O)O)NC(=O)[C@H](CCC(N)=O)NC(=O)[C@H](CC(C)C)NC(=O)[C@H](CC(C)C)NC(=O)[C@H](CCCN)NC(=O)[C@H](CCCNC(=N)N)NC(=O)[C@H](C)NC(=O)[C@H](CO)NC(=O)[C@H](CC(C)C)NC(=O)[C@H](CCC(N)=O)NC(=O)[C@H](CC)NC(=O)[C@H](CC(C)C)NC(=O)[C@@H](NC(=O)[C@H](CCCN)NC(=O)[C@H](CCCNC(=N)N)NC(=O)[C@H](Cc1ccc(O)cc1)NC(=O)[C@H](CO)NC(=O)[C@H](CCC(N)=O)NC(=O)[C@@H](NC(=O)[C@H](Cc1ccccc1)NC(=O)[C@@H](NC(=O)[C@H](C)NC(=O)[C@H](CC(=O)O)NC(=O)[C@@H](C)NC(=O)CCc1ccc(O)cc1)[C@@H](C)CC)[C@@H](C)O)C(C)C)[C@@H](C)CC)C(=O)N[C@@H](CC(=O)O)C(=O)N[C@@H](CCCNC(=N)N)C(=O)NC` [Peptide P-27408, [Dat^1, D-Ala^2, Gln^8, Orn^12, Abu^15, Orn^21, Nle^27, Asp^28]hGHRH(1-30)NH—CH3] (Desaminotyrosyl-[dA]DAIFTQSYR[Orn]VL[Abu]QLSAR[Orn]LLQDI[Nle]DR-NHMe): the “Relative affinitiy (Binding potency) vs JI-38” value amounted to 7.91.
Next, `CCCC[C@H](NC(=O)[C@@H](NC(=O)[C@H](CC(=O)O)NC(=O)[C@H](CCC(N)=O)NC(=O)[C@H](CC(C)C)NC(=O)[C@H](CC(C)C)NC(=O)[C@H](CCCN)NC(=O)[C@H](CCCNC(=N)N)NC(=O)[C@H](C)NC(=O)[C@H](CO)NC(=O)[C@H](CC(C)C)NC(=O)[C@H](CCC(N)=O)NC(=O)[C@H](CC)NC(=O)[C@H](CC(C)C)NC(=O)[C@@H](NC(=O)[C@H](CCCN)NC(=O)[C@H](CCCNC(=N)N)NC(=O)[C@H](Cc1ccc(O)cc1)NC(=O)[C@H](CO)NC(=O)[C@@H](NC(=O)[C@@H](NC(=O)[C@H](Cc1ccccc1)NC(=O)[C@@H](NC(=O)[C@H](C)NC(=O)[C@H](CC(=O)O)NC(=O)[C@@H](C)NC(=O)[C@H](Cc1ccc(O)cc1)NC)[C@@H](C)CC)[C@@H](C)O)[C@@H](C)O)C(C)C)[C@@H](C)CC)C(=O)N[C@@H](CC(=O)O)C(=O)N[C@@H](CCCNC(=N)N)C(=O)NC` [Peptide P-27410, [N—Me-Tyr^1, D-Ala^2, Thr^8, Orn^12, Abu^15, Orn^21, Nle^27, Asp^28]hGHRH(1-29)NH—CH3] (H-[NMeY][dA]DAIFTTSYR[Orn]VL[Abu]QLSAR[Orn]LLQDI[Nle]DR-NHMe): 5.24; `CCCC[C@H](NC(=O)[C@@H](NC(=O)[C@H](CC(=O)O)NC(=O)[C@H](CCC(N)=O)NC(=O)[C@H](CC(C)C)NC(=O)[C@H](CC(C)C)NC(=O)[C@H](CCCN)NC(=O)[C@H](Cc1c[nH]cn1)NC(=O)[C@H](C)NC(=O)[C@H](CO)NC(=O)[C@H](CC(C)C)NC(=O)[C@H](CCC(N)=O)NC(=O)[C@H](CC)NC(=O)[C@H](CC(C)C)NC(=O)[C@@H](NC(=O)[C@H](CCCN)NC(=O)[C@H](Cc1c[nH]cn1)NC(=O)[C@H](Cc1ccc(O)cc1)NC(=O)[C@H](CO)NC(=O)[C@H](CCC(N)=O)NC(=O)[C@@H](NC(=O)[C@H](Cc1ccccc1)NC(=O)[C@@H](NC(=O)[C@H](C)NC(=O)[C@H](CC(=O)O)NC(=O)C(C)NC(=O)CCc1ccc(O)cc1)[C@@H](C)CC)[C@@H](C)O)C(C)C)[C@@H](C)CC)C(=O)N[C@@H](CC(=O)O)C(=O)N[C@@H](CCCNC(=N)N)C(=O)NC` (stereo partly drawn) [Peptide P-27413, [Dat^1, Gln^8, His^11, Orn^12, Abu^15, His^20, Orn^21, Nle^27, Asp^28]hGHRH(1-29)NH—CH3] (Desaminotyrosyl-[ξA]DAIFTQSYH[Orn]VL[Abu]QLSAH[Orn]LLQDI[Nle]DR-NHMe): 1.78.
On to `CCCC[C@H](NC(=O)[C@@H](NC(=O)[C@H](CC(=O)O)NC(=O)[C@H](CCC(N)=O)NC(=O)[C@H](CC(C)C)NC(=O)[C@H](CC(C)C)NC(=O)[C@H](CCCN)NC(=O)[C@H](CCCNC(=N)N)NC(=O)[C@H](C)NC(=O)[C@H](CO)NC(=O)[C@H](CC(C)C)NC(=O)[C@H](CCC(N)=O)NC(=O)[C@H](CC)NC(=O)[C@H](CC(C)C)NC(=O)[C@@H](NC(=O)[C@H](CCCN)NC(=O)[C@H](CCCNC(=N)N)NC(=O)[C@H](Cc1ccc(O)cc1)NC(=O)[C@H](CO)NC(=O)[C@H](CC(N)=O)NC(=O)[C@@H](NC(=O)[C@H](Cc1c(F)c(F)c(F)c(F)c1F)NC(=O)[C@@H](NC(=O)[C@H](C)NC(=O)[C@H](CC(=O)O)NC(=O)[C@@H](C)NC(=O)[C@H](Cc1ccc(O)cc1)NC)[C@@H](C)CC)[C@@H](C)O)C(C)C)[C@@H](C)CC)C(=O)N[C@@H](CO)C(=O)N[C@@H](CCCNC(=N)N)C(=O)NCCCC(=O)NC` [Peptide P-27414, [N—Me-Tyr^1, D-Ala^2, Fpa5^6, Orn^12, Abu^15, Orn^21, Nle^27, Gab^30]hGHRH(1-30)NH—CH3] (H-[NMeY][dA]DAI[Phe(F5)]TNSYR[Orn]VL[Abu]QLSAR[Orn]LLQDI[Nle]SR[GABA]-NHMe), for which the “Relative affinitiy (Binding potency) vs JI-38” value is 2.79.
Next, `CCCC[C@H](NC(=O)[C@@H](NC(=O)[C@H](CC(=O)O)NC(=O)[C@H](CCC(N)=O)NC(=O)[C@H](CC(C)C)NC(=O)[C@H](CC(C)C)NC(=O)[C@H](CCCN)NC(=O)[C@H](CCCNC(=N)N)NC(=O)[C@H](C)NC(=O)[C@H](CO)NC(=O)[C@H](CC(C)C)NC(=O)[C@H](CCC(N)=O)NC(=O)[C@H](CC)NC(=O)[C@H](CC(C)C)NC(=O)[C@@H](NC(=O)[C@H](CCCN)NC(=O)[C@H](CCCNC(=N)N)NC(=O)[C@H](Cc1ccc(O)cc1)NC(=O)[C@H](CO)NC(=O)[C@H](CC(N)=O)NC(=O)[C@@H](NC(=O)[C@H](Cc1ccccc1)NC(=O)[C@@H](NC(=O)[C@H](C)NC(=O)[C@H](CC(=O)O)NC(=O)[C@H](C)NC(=O)[C@H](Cc1ccc(O)cc1)NC)[C@@H](C)CC)[C@@H](C)O)C(C)C)[C@@H](C)CC)C(=O)N[C@@H](CO)C(=O)N[C@@H](CCCNC(=N)N)C(=O)NCCCC(=O)NC` [Peptide P-27415, [N—Me-Tyr^1, Orn^12, Abu^15, Orn^21, Nle^27, Gab^30]hGHRH(1-30)NH—CH3] (H-[NMeY]ADAIFTNSYR[Orn]VL[Abu]QLSAR[Orn]LLQDI[Nle]SR[GABA]-NHMe): 1.44; `CCCC[C@H](NC(=O)[C@@H](NC(=O)[C@H](CC(=O)O)NC(=O)[C@H](CCC(N)=O)NC(=O)[C@H](CC(C)C)NC(=O)[C@H](CC(C)C)NC(=O)[C@H](CCCN)NC(=O)[C@H](CCCNC(=N)N)NC(=O)[C@H](C)NC(=O)[C@H](CO)NC(=O)[C@H](CC(C)C)NC(=O)[C@H](CCC(N)=O)NC(=O)[C@H](CC)NC(=O)[C@H](CC(C)C)NC(=O)[C@@H](NC(=O)[C@H](CCCN)NC(=O)[C@H](CCCNC(=N)N)NC(=O)[C@H](Cc1ccc(O)cc1)NC(=O)[C@H](CO)NC(=O)[C@H](CCC(N)=O)NC(=O)[C@@H](NC(=O)[C@H](Cc1ccccc1)NC(=O)[C@@H](NC(=O)[C@H](C)NC(=O)[C@H](CC(=O)O)NC(=O)[C@@H](C)NC(=O)[C@H](Cc1ccc(O)cc1)NC)[C@@H](C)CC)[C@@H](C)O)C(C)C)[C@@H](C)CC)C(=O)N[C@@H](CC(=O)O)C(=O)N[C@@H](CCCNC(=N)N)C(=O)NCC` [Peptide P-28420, [N—Me-Tyr^1, D-Ala^2, Gln^8, Orn^12, Abu^15, Orn^21, Nle^27, Asp^28]hGHRH(1-29)NH—CH2—CH3] (H-[NMeY][dA]DAIFTQSYR[Orn]VL[Abu]QLSAR[Orn]LLQDI[Nle]DR-NHEt): 8.37.
